Experiment: Extraction of acrylic acid and 3-hydroxypropionic acid from aqueous stock solutions by ethyl acetate (partition between ethyl acetate and aqueous phase)
Format: physicochemical
Details: for Partition coefficient, D, average number of partition coefficients listed in Table 2: ethyl acetate / aqueous phase, average over the five stock solutions; for Partition Coefficient, D: ethyl acetate extractant phase / aqueous phase, 22° C.; for Separation Factor, S AA/3HP: partition coefficient of AA divided by that of 3HP
Method: The aqueous stock solutions comprise 30% 3-hydroxypropionic acid aqueous solution and 99% acrylic acid.
1. To a 15 ml centrifuge tube 5 ml of each acid stock solution and ethyl acetate extractant were added.
2. […] (rpm designates revolutions per minute).
4. The volumes of the aqueous and ethyl acetate extractant phases in the tubes were recorded.
The processing conditions and experimental results for the extraction of acrylic acid (AA) and 3-hydroxypropionic acid (3HP) by ethyl acetate are reported in the following Table 2.

[1] = Aqueous Stock Solution No. 1 (0.67 wt % AA, 1.34 wt % 3HP)
[2] = Aqueous Stock Solution No. 2 (3.33 wt % AA, 6.67 wt % 3HP)
[3] = Aqueous Stock Solution No. 3 (6.67 wt % AA, 13.34 wt % 3HP)
[4] = Aqueous Stock Solution No. 4 (9.99 wt % AA, 19.98 wt % 3HP)
[5] = Aqueous Stock Solution No. 5 (12.51 wt % AA, 25.05 wt % 3HP)

Row | SMILES | Partition coefficient, D, average number of partition coefficients listed in Table 2 | Partition Coefficient, D [1] | Partition Coefficient, D [2] | Partition Coefficient, D [3] | Partition Coefficient, D [4] | Partition Coefficient, D [5] | Separation Factor, S AA/3HP (Aqueous Stock Solution No. 1) | Separation Factor, S AA/3HP (Aqueous Stock Solution No. 2) | Separation Factor, S AA/3HP (Aqueous Stock Solution No. 3) | Separation Factor, S AA/3HP (Aqueous Stock Solution No. 4) | Separation Factor, S AA/3HP (Aqueous Stock Solution No. 5)
1 | O=C(O)CCO [3HP, 3-hydroxypropionic acid] | 0.274 | 0.18 | 0.21 | 0.27 | 0.30 | 0.41 | – | – | – | – | –
2 | C=CC(=O)O [AA, acrylic acid] | 2.572 | 2.96 | 2.97 | 2.66 | 2.36 | 1.91 | 16.55 | 14.18 | 9.79 | 7.81 | 4.66

Reference: patent publication US7279598B2, “Process for separating and recovering 3-hydroxypropionic acid and acrylic acid” (priority 2003, dated 2007)
